From PubChem BioAssay (NCI)
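These data come from cells grown in 96-well plates and exposed to compound for 48 hours at five concentrations. GI50: concentration for 50% inhibition of growth. TGI marks complete inhibition of growth.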

Assays:
Assay in all cases: growth of human tumour cells (NCI), 48 h
SN12C renal = test system: SN12C renal
PC-3 prostate = test system: PC-3 prostate
HOP-62 NSCLC = test system: HOP-62 NSCLC
TK-10 renal = test system: TK-10 renal
CCRF-CEM leukemia = test system: CCRF-CEM leukemia
OVCAR-3 ovarian = test system: OVCAR-3 ovarian
HS 578T breast = test system: HS 578T breast
SNB-19 CNS = test system: SNB-19 CNS
SF-295 CNS = test system: SF-295 CNS
BT-549 breast = test system: BT-549 breast

## O=C1Nc2ccccc2/C1=N\[O-].O=C1Nc2ccccc2/C1=N\[O-].[Cu+2]
SN12C renal
  GI50: > 100000 nM
  TGI: > 100 µM
PC-3 prostate
  GI50: > 100000 nM
  TGI: > 100 µM
HOP-62 NSCLC
  GI50: > 100 µM
  TGI: > 100 µM
TK-10 renal
  GI50: > 100 µM
  TGI: > 100 µM
CCRF-CEM leukemia
  GI50: > 100000 nM
  TGI: > 100 µM
OVCAR-3 ovarian
  GI50: > 100 µM
  TGI: > 100 µM
HS 578T breast
  GI50: > 100 µM
  TGI: > 100 µM
SNB-19 CNS
  GI50: > 100 µM
  TGI: > 100 µM
SF-295 CNS
  GI50: > 100 µM
  TGI: > 100 µM
BT-549 breast
  GI50: > 100000 nM
  TGI: > 100 µM

## Nc1nc(/C=C\c2ccc([N+](=O)[O-])s2)nc(N2CCCC2)n1
SN12C renal
  GI50: 3450 nM
  TGI: 20.5 µM
PC-3 prostate
  GI50: 3920 nM
  TGI: 21.9 µM
HOP-62 NSCLC
  GI50: 13.5 µM
  TGI: 26.7 µM
TK-10 renal
  GI50: 6.27 µM
  TGI: 20.9 µM
CCRF-CEM leukemia
  GI50: 1570 nM
  TGI: 5.23 µM
OVCAR-3 ovarian
  GI50: 3.49 µM
  TGI: 12.2 µM
HS 578T breast
  GI50: 12.9 µM
  TGI: 59.7 µM
SNB-19 CNS
  GI50: 3.01 µM
  TGI: 21.6 µM
SF-295 CNS
  GI50: 4.4 µM
  TGI: 21.3 µM
BT-549 breast
  GI50: 7170 nM
  TGI: 20.9 µM

## CNCC#Cc1c(F)ccc2c1/C(=C/c1[nH]ccc1OC)C(=O)N2
SN12C renal
  GI50: 118 nM
  TGI: 2.86 µM
PC-3 prostate
  GI50: 320 nM
  TGI: 2.88 µM
HOP-62 NSCLC
  GI50: 0.307 µM
  TGI: 2.68 µM
TK-10 renal
  GI50: 0.098 µM
  TGI: 1.89 µM
CCRF-CEM leukemia
  GI50: 107 nM
  TGI: 0.954 µM
OVCAR-3 ovarian
  GI50: 0.516 µM
  TGI: 2.74 µM
HS 578T breast
  GI50: 0.195 µM
  TGI: 3.68 µM
SNB-19 CNS
  GI50: 0.621 µM
  TGI: 2.89 µM
SF-295 CNS
  GI50: 0.389 µM
  TGI: 3.55 µM
BT-549 breast
  GI50: 338 nM
  TGI: 1.54 µM

## COc1cc2c3c(n(C)c(=O)c2cc1OC)-c1cc2c(cc1/C3=C\CN)OCO2
SN12C renal
  GI50: 565 nM
  TGI: > 100 µM
PC-3 prostate
  GI50: 7030 nM
  TGI: > 100 µM
HOP-62 NSCLC
  GI50: 0.189 µM
  TGI: 17 µM
TK-10 renal
  GI50: 4.04 µM
  TGI: 32.8 µM
CCRF-CEM leukemia
  GI50: 124 nM
  TGI: 6.97 µM
OVCAR-3 ovarian
  GI50: 1.58 µM
  TGI: 14.8 µM
HS 578T breast
  GI50: 34.9 µM
  TGI: > 100 µM
SNB-19 CNS
  GI50: < 0.0405 µM
SF-295 CNS
  TGI: 0.614 µM
BT-549 breast
  TGI: > 100 µM

## COc1c(OC[C@H](O)CN2CCOCC2)ccc2c3n(c(=NC(=O)c4cccnc4C)nc12)CCN3
SN12C renal
  GI50: 1720 nM
  TGI: > 50 µM
PC-3 prostate
  GI50: 326 nM
  TGI: > 50 µM
HOP-62 NSCLC
  GI50: 1.41 µM
  TGI: > 50 µM
TK-10 renal
  GI50: 0.0941 µM
  TGI: > 50 µM
CCRF-CEM leukemia
  GI50: 1670 nM
  TGI: > 50 µM
OVCAR-3 ovarian
  GI50: 0.432 µM
  TGI: > 50 µM
HS 578T breast
  GI50: 0.15 µM
  TGI: > 50 µM
SNB-19 CNS
  GI50: 5.1 µM
  TGI: > 50 µM
SF-295 CNS
  GI50: 0.541 µM
  TGI: 17.2 µM
BT-549 breast
  GI50: 365 nM
  TGI: 46.6 µM

## CO/N=C(\COc1ccc2c(c1)oc(=O)c1cc(OC)ccc12)c1ccc(OC)cc1
SN12C renal
  GI50: > 100000 nM
  TGI: > 100 µM
PC-3 prostate
  GI50: > 100000 nM
  TGI: > 100 µM
HOP-62 NSCLC
  GI50: > 100 µM
  TGI: > 100 µM
TK-10 renal
  GI50: > 100 µM
  TGI: > 100 µM
CCRF-CEM leukemia
  GI50: > 100000 nM
  TGI: > 100 µM
OVCAR-3 ovarian
  GI50: > 100 µM
  TGI: > 100 µM
HS 578T breast
  GI50: > 100 µM
  TGI: > 100 µM
SNB-19 CNS
  GI50: > 100 µM
  TGI: > 100 µM
SF-295 CNS
  GI50: > 100 µM
  TGI: > 100 µM
BT-549 breast
  GI50: > 100000 nM
  TGI: > 100 µM

## C=C(C)[C@@H]1CC[C@]2(C)[C@H](CC=C3[C@@H]4CC(C)(C)CC[C@]4(C(N)=O)CC[C@]32C)[C@@]1(C)CCC#N
SN12C renal
  GI50: 1840 nM
  TGI: 3.7 µM
PC-3 prostate
  GI50: 2370 nM
  TGI: > 100 µM
HOP-62 NSCLC
  GI50: 7.44 µM
  TGI: > 100 µM
TK-10 renal
  GI50: 7.32 µM
  TGI: > 100 µM
CCRF-CEM leukemia
  GI50: 3020 nM
  TGI: > 100 µM
OVCAR-3 ovarian
  GI50: 3.49 µM
  TGI: > 100 µM
HS 578T breast
  GI50: 3.28 µM
  TGI: 54.6 µM
SNB-19 CNS
  GI50: 4.05 µM
  TGI: > 100 µM
SF-295 CNS
  GI50: 3.91 µM
  TGI: > 100 µM
BT-549 breast
  GI50: 2090 nM
  TGI: 5.53 µM

## O=C(N[C@@H](c1ccc(Cl)c(Cl)c1)C1CNC1)c1ccc2cnccc2c1
SN12C renal
  GI50: 715 nM
  TGI: 7.45 µM
PC-3 prostate
  GI50: 486 nM
  TGI: 17.2 µM
HOP-62 NSCLC
  GI50: 0.34 µM
  TGI: 11.5 µM
TK-10 renal
  GI50: 0.133 µM
  TGI: 3.09 µM
CCRF-CEM leukemia
  GI50: 189 nM
  TGI: 14.6 µM
OVCAR-3 ovarian
  GI50: 1.56 µM
  TGI: 13.2 µM
HS 578T breast
  GI50: 0.0256 µM
  TGI: 0.483 µM
SNB-19 CNS
  GI50: 0.649 µM
  TGI: 10.7 µM
SF-295 CNS
  GI50: 0.0914 µM
  TGI: 1.21 µM
BT-549 breast
  GI50: 301 nM
  TGI: 1.67 µM

## CC(C)Oc1ccc2cc(-c3nn(CC4CCNCC4)c4ncnc(N)c34)ccc2c1
SN12C renal
  GI50: 11800 nM
  TGI: 24.8 µM
PC-3 prostate
  GI50: 12000 nM
  TGI: 25.8 µM
HOP-62 NSCLC
  GI50: 15.6 µM
  TGI: 31.4 µM
TK-10 renal
  GI50: 12.8 µM
  TGI: 25.7 µM
CCRF-CEM leukemia
  GI50: 3980 nM
  TGI: 16.9 µM
OVCAR-3 ovarian
  GI50: 12.5 µM
  TGI: 25 µM
HS 578T breast
  GI50: 9.4 µM
  TGI: 32.2 µM
SNB-19 CNS
  GI50: 12.7 µM
  TGI: 26 µM
SF-295 CNS
  GI50: 3.67 µM
  TGI: 14.2 µM
BT-549 breast
  GI50: 9600 nM
  TGI: 22 µM

## Clc1ccc2[nH]cc(-c3nnnn3-c3ccccc3)c2c1
SN12C renal
  GI50: 32800 nM
  TGI: > 100 µM
PC-3 prostate
  GI50: 18600 nM
  TGI: > 59.5 µM
HOP-62 NSCLC
  GI50: 28 µM
  TGI: > 100 µM
TK-10 renal
  GI50: 7.29 µM
  TGI: > 31.6 µM
CCRF-CEM leukemia
  GI50: 19300 nM
  TGI: > 100 µM
OVCAR-3 ovarian
  GI50: 6.66 µM
  TGI: > 42.5 µM
HS 578T breast
  GI50: 15.4 µM
  TGI: > 60.8 µM
SNB-19 CNS
  GI50: 38.4 µM
  TGI: > 100 µM
SF-295 CNS
  GI50: 13.3 µM
  TGI: 52.7 µM
BT-549 breast
  GI50: 22200 nM
  TGI: 68.9 µM

## CC[C@H]1[C@@H]2C=C[C@@H]3[C@H]4C/C=C\C(=O)NCCC[C@@H]5NC(=O)/C(=C(O)/C=C/[C@@H]4C[C@@H]3[C@H]2C[C@H]1C)C5=O
SN12C renal
  GI50: 569 nM
  TGI: 1.99 µM
PC-3 prostate
  GI50: 865 nM
  TGI: 2.3 µM
HOP-62 NSCLC
  GI50: 1.4 µM
  TGI: 3.03 µM
TK-10 renal
  GI50: 1.35 µM
  TGI: 2.71 µM
CCRF-CEM leukemia
  GI50: 1590 nM
  TGI: 4.29 µM
OVCAR-3 ovarian
  GI50: 0.202 µM
  TGI: 0.556 µM
HS 578T breast
  GI50: 1.44 µM
  TGI: 3.81 µM
SNB-19 CNS
  GI50: 1.04 µM
  TGI: 2.42 µM
SF-295 CNS
  GI50: 1.42 µM
  TGI: 2.8 µM
BT-549 breast
  GI50: 1290 nM
  TGI: 2.74 µM

## CCOC(=O)Nc1ccc(-c2nc(-c3cccc(OCCN4CCOCC4)c3)c(-c3ccnc(Br)c3)[nH]2)cc1
SN12C renal
  GI50: 3770 nM
  TGI: > 100 µM
PC-3 prostate
  GI50: 2870 nM
  TGI: > 100 µM
HOP-62 NSCLC
  GI50: 3.1 µM
  TGI: > 100 µM
TK-10 renal
  GI50: 4.26 µM
  TGI: > 100 µM
CCRF-CEM leukemia
  GI50: 2940 nM
  TGI: > 100 µM
OVCAR-3 ovarian
  GI50: 4.3 µM
  TGI: > 100 µM
HS 578T breast
  GI50: 1.55 µM
  TGI: 4.91 µM
SNB-19 CNS
  GI50: 3.81 µM
  TGI: > 100 µM
BT-549 breast
  GI50: 2900 nM
  TGI: > 100 µM
